Assay results published in US20130143933A1, “TARGETED CORRECTION OF A GENETIC DEFECT IN CANCER THERAPY” (TRT Pharma Inc., priority 2011, published 2013).

Legend:
Nrf2 [1] = assay: Immunoblotting of Nrf2 protein levels in A549 cells; format: cell-based; details: 48 hours, NR16 at 1 and 5 μM, compared to DMSO
Protocol: This effect is mediated by a depletion of Nrf2, as confirmed by immunoblotting of Nrf2 protein levels in A549 cells, exposed to NR16 for 48 hours (FIG. 4).

[2] = system: A2ARE-dependent reporter activity in A549 cells; assay: ARE-dependent luciferase assay (A2ARE-luc reporter) in A549 cells; format: cell-based; details: NR16 at 1, 2.5 and 5 μM, NR13 at 2.5 μM, 24 hours, vs DMSO vehicle
Protocol: A549 cells are highly resistant to carboplatin and constitutively express high level of Nrf2 due to a mutation (G333C) in Keap1. Using ARE-dependent luciferase assays in A549 cells, which have constitutively high Nrf2 levels, the 18 compounds that are designed to target the CTD of Keap1 are tested. Included amongst these are NR16 and NR13. […] A2ARE-luc plasmid is transiently transfected into A549 cells. pRL-TK is included as internal control. Transfected cells are treated with DMSO vehicle, compound NR16 at 1, 2.5 and 5 μM as well as NR13 at 2.5 μM for 24 hours. **p<0.005, ***p<0.0005 when compared with DMSO vehicle.
A2ARE-luc and pRL-TK plasmids are transiently transfected into A549 cells. 6 hours after transfection, the transfected cells are exposed to DMSO vehicle control or compound at designated doses (5 μM) for 24 hours. ***p<0.0001 when compared with vehicle control.

[3] = system: phospho-GSK at Ser9 position; assay: phospho-GSK (Ser9) level in H460 cells exposed to PF-04691502; format: cell-based; details: H460 cells (PI3K E545K, Keap1 D286H); within 6 hours
Protocol: (§1) H460 cells, which bear both mutations in PI3K (E545K) and Keap1 (D286H) are exposed the cells to the dual and potent PI3K and mTOR inhibitor PF-04691502 currently in clinical development. Within 6 hours a dramatic drop in phospho-GSK at the critical Ser9 position is detected (FIG. 6A). Within 24 hours cellular Nrf2 is reduced (FIG. 6A). This is not observed even at a higher dose in A549 cells, which have wild type PI3K (FIG. 6B).

pAkt (and pGSK-3β) = details: mouse xenograft models; oral, once daily, 10 mg/Kg; cited from earlier work
Nrf2 [4] = assay: Cellular Nrf2 level in H460 cells exposed to PF-04691502; format: cell-based; details: within 24 hours
Protocol: as §1

H460 cells = assay: Sensitization to paclitaxel, AlamarBlue cell survival, H460; format: cell-based; details: PF at 10 and 50 nm, range of paclitaxel doses
Protocol: PF-04691502 is tested to determine is it sensitizes H460 cells to paclitaxel in vitro, using two concentrations of PF (10 and 50 nm) and a range of paclitaxel doses. Cell survival is measured using AlamarBlue and fluorescence detection for viable (metabolically active) cells with 560Exnm/590EMnm filters.

A549 = assay: Sensitization to paclitaxel, AlamarBlue cell survival, A549; format: cell-based; details: A549, Keap1 mutation but wild type PI3K
MCF7 cells = assay: Sensitization to cisplatin or paclitaxel in Keap1-depleted (siRNA) MCF7 cells, Alamar blue; format: cell-based; details: MCF7 cells with Keap1 depletion (siRNA); PF-04691502 50nM for 24 h
Text: To further test the specific cytotoxicity of PF-04691502, H460 cells are transfected with an siRNA specifically designed to deplete GSK-3R levels. Another siRNA that depletes Keap1 is used to test whether cells which have an activating mutation of PI3K, but WT Keap1, (e.g. MCF7), are sensitized by PF-04691502 when Keap1 is depleted. The pSuper platform (OligoEngine, Seattle, Wash.) is used to clone both siRNAs. Small inhibitory RNA sequences are designed using software available online at invitrogen.com. The siRNA, when dimerized form Bgl II and Hind III restriction sites. The oligos are cloned into the Bgl II/Hind III sites of the pSuper-puro vector.
These experiments confirm that the proposed mechanism of sensitization is GSK-dependent in Keap1 mutated or depleted (siRNA) cells. Cells are exposed to PF-04691502 50nM for 24 h, at which time media is replaced with fresh PF-04691502 and one of either cisplatin or paclitaxel is added at various doses. Cell survival is determined using Alamar blue. The shift in IC50 is determined.

MCF-7 cells = assay: Sensitization to paclitaxel, AlamarBlue cell survival, MCF-7; format: cell-based; details: MCF-7, PI3K mutation but no Keap1 mutation
[5] = system: A549 cells (wild type PI3K); assay: phospho-GSK / Nrf2 level in A549 cells exposed to PF-04691502; format: cell-based; details: even at a higher dose
Protocol: as §1

Structure (SMILES)	Nrf2 protein level (western blot) (Nrf2 [1])	A2ARE-dependent reporter activity [2]	phospho-GSK at Ser9 position [3]	depletion of phosphorylated forms of proteins in the PI3K pathway such as pAkt (and pGSK-3β) (pAkt (and pGSK-3β))	persistence of depletion of phosphorylated PI3K pathway proteins (pAkt (and pGSK-3β)) [h]	cellular Nrf2 (Nrf2 [4])	sensitization to paclitaxel (cell survival) (H460 cells)	sensitization to paclitaxel (cell survival) (A549)	sensitization to cisplatin or paclitaxel (cell survival) (MCF7 cells)	sensitization to paclitaxel (cell survival) (MCF-7 cells)	drop in phospho-GSK / reduction of cellular Nrf2 [5]
O=C(CCCSCCCC(=O)N/N=C/c1ccccc1O)N/N=C/c1ccccc1O [NR16]	dose-dependent decrease	suppressed A2ARE-dependent reporter activity									
O=C(CCCSCCCC(=O)N/N=C/c1ccccc1)N/N=C/c1ccccc1 [NR13]	inactive	inactive									
COc1ccc(-c2cc3c(C)nc(N)nc3n([C@H]3CC[C@H](OCCO)CC3)c2=O)cn1 [PF-04691502]			dramatic drop	significant depletion	≥ 8	reduced	significant sensitization	no sensitization	sensitizing effect	no sensitization	not observed
